We go through 37 compounds from patent US11352350B2, “IRAK degraders and uses thereof” (Kymera Therapeutics, Inc., priority 2018, dated 2022).

The target in this assay is IRAK4 (Homo sapiens (Human), UniProt Q9NWZ3). Kind of assay: IRAK4 MSD degradation in OCI-LY10. The format is cell-based. As to the method:
Degradation of IRAK4 in OCI-LY10 was quantitatively measured using Meso Scale Discovery technology. […] Compounds were then added to the assay plates with a final top concentration of 1 to 10 μM in a 1:3 dilution series with total of 8 doses. The assay plates were then incubated for 4 to 24 hours at 37° C. under 5% CO2. […] To prepare MSD assay plates (Meso Scale Discovery Catalog number L15XA-3), the plates were coated with […] capture antibody (mouse Anti-IRAK4 antibody [2H9], ab119942) in PBS, at 40 μL/well. […] Cell lysates were then added to MSD assay plates and the plates were incubated at room temperature for 1 hour. The plates were then washed 3 times with 150 μL/well TBST buffer and 25 μL/well primary detection antibody (rabbit Anti-IRAK4 antibody [Y279], from Abcam. Catalog number ab32511, […]). The assay plates were then incubated at room temperature for 1 hour, washed 3 times with 150 μL/well TBST buffer and 25 µL/well secondary detection antibody, SULFO-TAG anti-rabbit antibody were added (anti rabbit antibody from Meso Scale Discovery, Catalog number R32AB-1, 1 μg/mL). The assay plates were then incubated at room temperature for 1 hour, washed 3 times with 150 μL/well TB ST buffer, and 150 μL/well MSD reading buffer (Meso Scale Discovery catalog number R92TC-2) was added. The plates were then analyzed by a MSD reader (Meso Scale Discovery, Model Quick Plex SQ 120). The data was then analyzed by software Prism 7.0 from GraphPad and the dose-depended IRAK4 degradation were fit using a three-parameter logistic equation to calculate DC50.

Setting [1] is: OCI-LY10, 4 hrs, MSD, read-out: IRAK4 MSD degradation in OCI-LY10 at 4 hrs: Average external-Abs DC50.
Where [2] appears, read: OCI-LY10, 24 hrs, MSD, read-out: IRAK4 MSD degradation in OCI-LY10 at 24 hrs: Average external-Abs DC50.

Read-outs that look alike come from different tables or passages of the source. Some results are limits rather than exact numbers.

Sequence of IRAK4 (Q9NWZ3 whole entry): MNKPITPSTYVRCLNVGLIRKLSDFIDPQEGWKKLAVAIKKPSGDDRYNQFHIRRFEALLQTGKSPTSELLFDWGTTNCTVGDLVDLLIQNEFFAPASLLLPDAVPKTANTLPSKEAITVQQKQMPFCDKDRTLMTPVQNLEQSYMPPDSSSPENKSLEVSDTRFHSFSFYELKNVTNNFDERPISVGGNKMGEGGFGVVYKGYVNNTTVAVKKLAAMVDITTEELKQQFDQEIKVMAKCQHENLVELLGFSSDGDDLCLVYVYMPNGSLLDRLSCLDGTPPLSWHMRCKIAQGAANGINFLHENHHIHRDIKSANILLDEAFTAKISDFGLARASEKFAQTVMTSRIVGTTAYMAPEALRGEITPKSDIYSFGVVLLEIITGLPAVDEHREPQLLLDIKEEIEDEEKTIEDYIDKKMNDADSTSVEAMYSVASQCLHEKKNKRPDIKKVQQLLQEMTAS

By DC50 is commonly meant the concentration at which degradation of the target reaches its halfway point. `Cn1c(=O)n(C2CCC(=O)NC2=O)c2cccc(CN3CCC(CCN4CCC(n5cc(NC(=O)c6coc(-c7ccnc(NCC8CC8)c7)n6)c(C(F)F)n5)CC4)CC3)c21` (stereo not drawn) [I-264]: the 50% degradation concentration (DC50) reads like this: under setting [1], less than 10 nM; under setting [2], less than 10 nM. For the compound `Cn1c(=O)n(C2CCC(=O)NC2=O)c2ccc(CN3CCC(CCC(=O)N4CCC(n5cc(NC(=O)c6coc(-c7ccnc(NCC8CC8)c7)n6)c(C(F)F)n5)CC4)CC3)cc21` (stereo not drawn) [I-255], the DC50 by setting is: under setting [1], 10 to 100 nM; under setting [2], less than 10 nM. For `Cn1c(=O)n(C2CCC(=O)NC2=O)c2cccc(CCCOCCCN(C[C@H]3CC[C@H](n4cc(NC(=O)c5coc(-c6ccnc(NCC7CC7)c6)n5)c(C(F)F)n4)CC3)C3CC3)c21` (stereo partly drawn) [I-64], the half-maximal degradation concentration (DC50) under setting [1] is 100 to 1000 nM.

In the case of `CN(C[C@H]1CN(Cc2cccc3c2n(C)c(=O)n3C2CCC(=O)NC2=O)CCO1)C[C@H]1CC[C@H](n2cc(NC(=O)c3coc(-c4ccnc(NCC5CC5)c4)n3)c(C(F)F)n2)CC1` (stereo partly drawn) [I-77], under setting [1], the DC50 was in the range of 10 to 100 nM. On the same count and under the same terms, next, `CN(CCOCC1CCN(c2ccc3c(c2)n(C)c(=O)n3C2CCC(=O)NC2=O)CC1)C[C@H]1CC[C@H](n2cc(NC(=O)c3coc(-c4ccnc(NCC5CC5)c4)n3)c(C(F)F)n2)CC1` (stereo partly drawn) [I-56]: 100 to 1000 nM; `Cn1c(=O)n(C2CCC(=O)NC2=O)c2cccc(CN3CCC(OCC4CCN(C[C@H]5CC[C@H](n6cc(NC(=O)c7coc(-c8ccnc(NCC9CC9)c8)n7)c(C(F)F)n6)CC5)CC4)CC3)c21` (stereo partly drawn) [I-248]: less than 10 nM; `CNc1cc(-c2nc(C(=O)Nc3cn([C@H]4CC[C@H](CN(C)CCCOCCCc5cccc6c5n(C)c(=O)n6C5CCC(=O)NC5=O)CC4)nc3C(F)F)co2)ccn1` (stereo partly drawn) [I-68]: 10 to 100 nM. Same read-out and setting: next, `CN(C[C@@H]1CN(Cc2cccc3c2n(C)c(=O)n3C2CCC(=O)NC2=O)CCO1)C[C@H]1CC[C@H](n2cc(NC(=O)c3coc(-c4ccnc(NCC5CC5)c4)n3)c(C(F)F)n2)CC1` (stereo partly drawn) [I-78]: 10 to 100 nM. Regarding `CN(CCOCCCc1cccc2c1N(C)C(=O)C2C1CCC(=O)NC1=O)CC[C@H]1CC[C@H](n2cc(NC(=O)c3coc(-c4ccnc(NCC5CC5)c4)n3)c(C(F)F)n2)CC1` (stereo partly drawn) [I-154], the DC50 was in the range of 10 to 100 nM under setting [1] and 10 to 100 nM under setting [2]. Regarding `CN(CC[C@H]1CN(CCCc2ccc3c(c2)n(C)c(=O)n3C2CCC(=O)NC2=O)CCO1)C[C@H]1CC[C@H](n2cc(NC(=O)c3coc(-c4ccnc(NCC5CC5)c4)n3)c(C(F)F)n2)CC1` (stereo partly drawn) [I-96], the DC50 under setting [1] fell in the range of 10 to 100 nM. Still for that read-out and setting: next, `O=C1CCC(n2c3cccc(CCCOCCOCCNC[C@H]4CC[C@H](n5cc(NC(=O)c6coc(-c7ccnc(NCC8CC8)c7)n6)c(C(F)F)n5)CC4)c3c3cccnc32)C(=O)N1` (stereo partly drawn) [I-93]: 10 to 100 nM.

Turning to `CN1CCN(c2ccn3ncc(C(=O)Nc4cn([C@H]5CC[C@H](CN6CCC(OCCCc7cccc8c7n(C)c(=O)n8C7CCC(=O)NC7=O)CC6)CC5)nc4C(F)F)c3c2)CC1` (stereo partly drawn) [I-258], the half-maximal degradation concentration (DC50) is, setting by setting: under setting [1], 10 to 100 nM; under setting [2], 10 to 100 nM. `O=C1CCC(n2c3ccc(CCCN4CC5(CCN(C(=O)[C@H]6CC[C@H](n7cc(NC(=O)c8cnn9ccc(N%10C[C@H]%11C[C@@H]%10CO%11)nc89)c(C(F)F)n7)CC6)CC5)C4)cc3c3cccnc32)C(=O)N1` (stereo partly drawn) [I-388]: the half-maximal degradation concentration (DC50) under setting [1] lay within 10 to 100 nM.

As for `Cn1c(=O)n(C2CCC(=O)NC2=O)c2cccc(CCCOCCCCCN3CCC(n4cc(NC(=O)c5coc(-c6ccnc(NCC7CC7)c6)n5)c(C(F)F)n4)CC3)c21` (stereo not drawn) [I-262], the DC50 was less than 10 nM under setting [1] and less than 10 nM under setting [2]. Consider `Cn1c(=O)n(C2CCC(=O)NC2=O)c2cccc(CN3CCC(OC4CCN(C[C@H]5CC[C@H](n6cc(NC(=O)c7coc(-c8ccnc(NCC9CC9)c8)n7)c(C(F)F)n6)CC5)CC4)CC3)c21` (stereo partly drawn) [I-256], for which the half-maximal degradation concentration (DC50) under setting [1] is less than 10 nM. For the compound `CN(CCCOCCCc1ccc2c(c1)n(C)c(=O)n2C1CCC(=O)NC1=O)C[C@H]1CC[C@H](n2cc(NC(=O)c3coc(-c4ccnc(NCC5CC5)c4)n3)c(C(C)(C)O)n2)CC1` (stereo partly drawn) [I-83], the half-maximal degradation concentration (DC50) under setting [1] lay within 100 to 1000 nM. In the case of `CN(CCCOCCCc1ccc2c(c1)oc(=O)n2C1CCC(=O)NC1=O)C[C@H]1CC[C@H](n2cc(NC(=O)c3coc(-c4ccnc(NCC5CC5)c4)n3)c(C(F)F)n2)CC1` (stereo partly drawn) [I-87], under setting [1], the half-maximal degradation concentration (DC50) was less than 10 nM. On the same count and under the same terms, next, `CN(CCCOCC#Cc1cccc2c1n(C)c(=O)n2C1CCC(=O)NC1=O)C[C@H]1CC[C@H](n2cc(NC(=O)c3coc(-c4ccnc(NCC5CC5)c4)n3)c(C(F)F)n2)CC1` (stereo partly drawn) [I-88]: 100 to 1000 nM; `CC(C)N(CCCOCCCc1cccc2c1n(C)c(=O)n2C1CCC(=O)NC1=O)C[C@H]1CC[C@H](n2cc(NC(=O)c3coc(-c4ccnc(NCC5CC5)c4)n3)c(C(F)F)n2)CC1` (stereo partly drawn) [I-63]: 10 to 100 nM. Take `CN(CC[C@@H]1CN(CCCc2ccc3c(c2)n(C)c(=O)n3C2CCC(=O)NC2=O)CCO1)C[C@H]1CC[C@H](n2cc(NC(=O)c3coc(-c4ccnc(NCC5CC5)c4)n3)c(C(F)F)n2)CC1` (stereo partly drawn) [I-97]: under setting [1], the DC50 is less than 10 nM.

In the case of `Cn1c(=O)n(C2CCC(=O)NC2=O)c2ccc(CCCOCCCCCN3CCC(n4cc(NC(=O)c5coc(-c6ccnc(NCC7CC7)c6)n5)c(C(F)F)n4)CC3)cc21` (stereo not drawn) [I-261], the DC50 is, setting by setting: under setting [1], less than 10 nM; under setting [2], less than 10 nM. As to `Cn1c(=O)n(C2CCC(=O)NC2=O)c2ccc(CN3CCC(CCO[C@H]4C[C@H](N(C)C[C@H]5CC[C@H](n6cc(NC(=O)c7coc(-c8ccnc(NCC9CC9)c8)n7)c(C(F)F)n6)CC5)C4)CC3)cc21` (stereo partly drawn) [I-238], the DC50 under setting [1] was in the range of 10 to 100 nM.

`CN(CCOCCNCc1ccc2c(c1)n(C)c(=O)n2C1CCC(=O)NC1=O)C(=O)[C@H]1CC[C@H](n2cc(NC(=O)c3coc(-c4ccnc(NCC5CC5)c4)n3)c(C(F)F)n2)CC1` (stereo partly drawn) [I-55]: under setting [1], the DC50 is less than 10 nM. Still for that read-out and setting: to `CN(CCC1CCN(Cc2cccc3c2n(C)c(=O)n3C2CCC(=O)NC2=O)CC1)C[C@H]1CC[C@H](n2cc(NC(=O)c3coc(-c4ccnc(NCC5CC5)c4)n3)c(C(F)F)n2)CC1` (stereo partly drawn) [I-79] belongs 10 to 100 nM; to `Cn1c(=O)n(C2CCC(=O)NC2=O)c2cccc(CCCO[C@@H]3CCN(C[C@H]4CC[C@H](n5cc(NC(=O)c6coc(-c7ccnc(NCC8CC8)c7)n6)c(C(F)F)n5)CC4)C3)c21` (stereo partly drawn) [I-73], less than 10 nM. As to `O=C1CCC(N2C(=O)c3ccc(NCC4CC5(CCN(C[C@H]6CC[C@H](n7cc(NC(=O)c8cnn9ccc(N%10C[C@H]%11C[C@@H]%10CO%11)nc89)c(C(F)F)n7)CC6)CC5)C4)cc3C2=O)C(=O)N1` (stereo partly drawn) [I-556], the DC50 by setting is: (OCI-LY10, 4 hrs, read-out: IRAK4 MSD degradation in OCI-LY10 at 4 hrs: DC50) 10 to 100 nM; (OCI-LY10, 24 hrs, read-out: IRAK4 MSD degradation in OCI-LY10 at 24 hrs: DC50) less than 10 nM. For the compound `Cn1c(=O)n(C2CCC(=O)NC2=O)c2cccc(CN3CCC(CCCN4CCC(n5cc(NC(=O)c6coc(-c7ccnc(NCC8CC8)c7)n6)c(C(F)F)n5)CC4)CC3)c21` (stereo not drawn) [I-253], the 50% degradation concentration (DC50) under setting [1] was 10 to 100 nM. As to `Cn1c(=O)n(C2CCC(=O)NC2=O)c2cccc(CCCO[C@H]3CCN(C[C@H]4CC[C@H](n5cc(NC(=O)c6coc(-c7ccnc(NCC8CC8)c7)n6)c(C(F)F)n5)CC4)C3)c21` (stereo partly drawn) [I-72], the half-maximal degradation concentration (DC50) under setting [1] lay within 10 to 100 nM. Same read-out and setting: next, `CN(CCCOCCCc1cccc2c1n(C)c(=O)n2C1CCC(=O)NC1=O)C[C@H]1CC[C@H](n2cc(NC(=O)c3coc(-c4ccncc4)n3)c(C(F)F)n2)CC1` (stereo partly drawn) [I-69]: 100 to 1000 nM.

Regarding `Cn1c(=O)n(C2CCC(=O)NC2=O)c2cccc(CCCOCCOCCOCCOCC(=O)N3CCN([C@H]4CC[C@H](Nc5ncnn6ccc(C7CCOCC7)c56)CC4)CC3)c21` (stereo partly drawn) [I-19], the DC50 under setting [1] is greater than 1000 nM and the DC50 under setting [2] is greater than 1000 nM. For the compound `CN(CC1CCN(CCC#Cc2ccc3c(c2)n(C)c(=O)n3C2CCC(=O)NC2=O)CC1)C[C@H]1CC[C@H](n2cc(NC(=O)c3coc(-c4ccnc(NCC5CC5)c4)n3)c(C(F)F)n2)CC1` (stereo partly drawn) [I-57], under setting [1], the half-maximal degradation concentration (DC50) was less than 10 nM.

`Cn1c(=O)n(C2CCC(=O)NC2=O)c2ccc(CCCN3CCO[C@@H](CNC[C@H]4CC[C@H](n5cc(NC(=O)c6coc(-c7ccnc(NCC(F)(F)F)c7)n6)c(C(C)(C)O)n5)CC4)C3)cc21` (stereo partly drawn) [I-60]: under setting [1], the DC50 lay in the range of 10 to 100 nM. Same read-out and setting: next, `Cn1c(=O)n(C2CCC(=O)NC2=O)c2cccc(CN3CCC(CC4CCN(C[C@H]5CC[C@H](n6cc(NC(=O)c7coc(-c8ccnc(NCC9CC9)c8)n7)c(C(F)F)n6)CC5)CC4)CC3)c21` (stereo partly drawn) [I-74]: less than 10 nM; `CN(CCCOCCCc1cccc2c1n(C)c(=O)n2C1CCC(=O)NC1=O)C[C@H]1CC[C@H](n2cc(NC(=O)c3cccc(C(F)(F)F)n3)c(C(C)(C)O)n2)CC1` (stereo partly drawn) [I-71]: 100 to 1000 nM; `CN(CCCCc1cccc2c1n(C)c(=O)n2C1CCC(=O)NC1=O)C[C@H]1CC[C@H](n2cc(NC(=O)c3coc(-c4ccnc(NCC5CC5)c4)n3)c(C(F)F)n2)CC1` (stereo partly drawn) [I-66]: less than 10 nM. In the case of `Cn1c(=O)n(C2CCC(=O)NC2=O)c2cccc(CCCOC3CCN(C[C@H]4CC[C@H](n5cc(NC(=O)c6cnn7cccnc67)c(C(F)F)n5)CC4)CC3)c21` (stereo partly drawn) [I-251], the half-maximal degradation concentration (DC50) under setting [1] was 100 to 1000 nM. Take `CN(CCOC(=O)NCc1ccc2c(c1)n(C)c(=O)n2C1CCC(=O)NC1=O)C[C@H]1CC[C@H](n2cc(NC(=O)c3coc(-c4ccnc(NCC5CC5)c4)n3)c(C(F)F)n2)CC1` (stereo partly drawn) [I-91]: under setting [1], the half-maximal degradation concentration (DC50) lay within 100 to 1000 nM.
